Experimental data as given in patent US9180139B2, “Regulator, pharmaceutical composition encompassing the regulator and application thereof” (NATIONAL CHENG KUNG UNIVERSITY, priority 2012, dated 2015).

Experiments:
[1] = system: αV integrin; test: Expression of αV integrin after shRNA transfection; type: cell-based, human; conditions: TSGH8301 and TSGH8301/EMP2-2 cell lines
Excerpt: (§1) These two cell lines were transfected with small hairpin RNAs (shRNA) against αV and β3 integrins, respectively. In brief, TSGH8301 and TSGH8301/EMP2-2 cell lines were transfected with shRNAs of A1 or C1 against β3 integrin, shRNAs of H1 or G1 against αV integrin. The mRNA of EMP2 and TBP of these transfected cell lines were harvested for quantification by real-time PCR. The sequences of shRNAs of A1 (SEQ ID NO. 1), C1 (SEQ ID NO. 2), H1 (SEQ ID NO. 3) and G1 (SEQ ID NO. 4) are 5′-[…] CATAATGTTTTT-3′, 5′-[…] AACAGGGTTTTT-3′, 5′-[…] GTAAGGCTTTTTG-3′ and 5′-[…] TCCCTCGTTTTTG-3′, respectively. After transfections of shRNAs of A1, C1, H1 and G1, expressions of αV and β3 integrins in TSGH8301 and TSGH8301/EMP2-2 cell lines were repressed correspondingly. Besides, mRNA expression of EMP2 and TBP in TSGH8301 and TSGH8301/EMP2-2 cell lines without transfection was taken as controls (Ctl).

[2] = system: EMP2 mRNA expression of RT4 bladder cancer cell line; test: Northern blotting of EMP2 mRNA expression in RT4 cells treated with genistein; type: cell-based; conditions: genistein 10 μg/mL, 24 hours, normalized to β-actin
Method: FIG. 1A is a northern blotting figure showing the respective EMP2 mRNA expressions of RT4 bladder cancer cell line treated with genistein (10 μg/mL) for 24 hours (Isoflavone treatment group) or not (Control group).
Please refer to FIG. 1A which is a northern blotting figure. […] That is, genistein, the isoflavone compound, can up-regulate the EMP2 mRNA expression of RT4 cells.

[3] = system: EMP2 mRNA expression of TSGH8301 human bladder cancer cell line; test: Relative quantification of EMP2 mRNA expression in TSGH8301 cells incubated with genistein; type: cell-based
Method: TSGH8301 cell lines were initially incubated with mediums containing 2 μM, 5 μM and 10 μM of genistein, respectively, and the respective EMP2 mRNA expressions was measured at sixth day, wherein mRNA expressions of housekeeping gene was taken as the baseline control.
TSGH8301 cells were initially incubated with medium containing 15 μM of genistein and EMP2 mRNA expressions were measured at second, fourth and sixth days, respectively, wherein mRNA expressions of housekeeping gene of TSGH8301 cell lines were taken as the baseline control. With increase of incubating durations, EMP2 mRNA expression of TSGH8301 cells incubated with genistein was increased as shown in FIG. 3.

[4] = system: β3 integrin; test: Expression of β3 integrin after shRNA transfection; type: cell-based, human; conditions: TSGH8301 and TSGH8301/EMP2-2 cell lines
Excerpt: as §1

Compound	expression of αV integrin after shRNA transfection [1]	expression of β3 integrin after shRNA transfection [4]	further results
H1: shRNA against αV integrin, 5′-CCGGGCCTTACAAATACAACAACAACTCGAGTTGTTGTTGTATTT GTAAGGCTTTTTG-3′ (CCGGGCCTTACAAATACAACAACAACTCGAGTTGTTGTTGTATTTGTAAGGCTTTTTG)	repressed	–	–
G1: shRNA against αV integrin, 5′-CCGGCGAGGGAAGTTACTTCGGATTCTCGAGAATCCGAAGTAACT TCCCTCGTTTTTG-3′ (CCGGCGAGGGAAGTTACTTCGGATTCTCGAGAATCCGAAGTAACTTCCCTCGTTTTTG)	repressed	–	–
O=c1c(-c2ccc(O)cc2)coc2cc(O)cc(O)c12 [genistein]	–	–	EMP2 mRNA expression compared with Control group (defined as 1) [2]: up to 3.5 times; EMP2 mRNA expression, dependence on genistein concentration ([3]; 2 μM, 5 μM and 10 μM genistein, measured at sixth day, P=0.03 two way ANOVA): dose-dependent up-regulation; EMP2 mRNA expression, dependence on incubating duration ([3]; 15 μM genistein, measured at second, fourth and sixth days, P=0.03 one way ANOVA): time-dependent up-regulation
A1: shRNA against β3 integrin, 5′-CCGGCATTATGTTTACAGAGGACAACTCGAGTTGTCCTCTGTAAA CATAATGTTTTT-3′ (CCGGCATTATGTTTACAGAGGACAACTCGAGTTGTCCTCTGTAAACATAATGTTTTT)	–	repressed	–
C1: shRNA against β3 integrin, 5′-CCGGCCCTGTTACAATATGAAGAATCTCGAGATTCTTCATATTGT AACAGGGTTTTT-3′ (CCGGCCCTGTTACAATATGAAGAATCTCGAGATTCTTCATATTGTAACAGGGTTTTT)	–	repressed	–
